Structures can show the parent of a compound that is named as a salt.
Tested on: human aortic vascular smooth muscle cells (HASOM cells)
Assay: hPDGF-BB induced migration of human aortic vascular smooth muscle cells (Boyden chamber)
Type: cell-based
Settings: 20 ng/ml hPDGF-BB, 48 hours drug pre-incubation, 12 hours migration, dose dependent (FIG. 1)
Protocol: Drug concentrations for G are in ng/mL and for R are in pg/mL. The first lane has no PDGF added and the first two lanes have no drug compounds added. The results are expressed as means±S.E.M. of triplicate readings.
In vitro studies were performed to examine the dose response of Gleevec and rapamycin on human aortic vascular smooth muscle cells (HASOM cells). Cell migration was measured using a 24-well Boyden-chamber (Corning Costar Corp, Cambridge, Mass.). […] These membranes were coated with 0.1% gelatin for eight hours, then aspirated and allowed to dry for two hours. The cells were allowed to grow to 70% confluence and then treated with media containing 1% fetal calf serum and drug compounds (Gleevec alone, rapamycin alone and Gleevec and rapamycin together at the concentrations indicated in FIG. 1) for 48 hours prior to the migration assay. […] The cells were harvested in 0.05% trypsin, resuspended in M-199 media, and seeded on the coated membrane at a concentration of 4000 cells per well with Gleevec and/or rapamycin. The M-199 media containing 0.5% BSA and 20 ng/ml human PDGF-B (hPDGF-BB) was placed in the bottom Boyden chamber. Cells were incubated in 5% CO2 at 37° C. for 12 hours and the cells lying on the upper surface of the membrane were scraped. […] Cell migration was quantified by counting the cells in five random high-power fields on the lower surface of the membrane. […]

Q: With Cc1ccc(NC(=O)c2ccc(CN3CCN(C)CC3)cc2)cc1Nc1nccc(-c2cccnc2)n1 [Gleevec, imatinib mesylate] as the molecule, how does the “inhibition of PDGF induced migration of HASOM cells” value read?
A: potently inhibited
